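Method: 48-hour compound exposure of cells in 96-well plates, five concentrations, linear interpolation of endpoints. Here, GI50 denotes the concentration required for 50% inhibition of growth. TGI: concentration producing complete growth inhibition.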
Experiments:
Assay in all cases: inhibition of tumour cell growth, NCI panel, 48 h
HOP-92 NSCLC = tested on: HOP-92 NSCLC
HT29 colon = tested on: HT29 colon
MDA-MB-231 breast = tested on: MDA-MB-231 breast
MDA-MB-435 = tested on: MDA-MB-435
NCI-H226 lung = tested on: NCI-H226 lung
NCI-H460 lung = tested on: NCI-H460 lung
OVCAR-3 ovarian = tested on: OVCAR-3 ovarian
SK-MEL-2 melanoma = tested on: SK-MEL-2 melanoma
SN12C renal = tested on: SN12C renal
SNB-75 CNS = tested on: SNB-75 CNS

| Structure (SMILES) | TGI (HOP-92 NSCLC) [µM] | TGI (HT29 colon) [µM] | TGI (MDA-MB-231 breast) [µM] | TGI (MDA-MB-435) [µM] | TGI (NCI-H226 lung) [µM] | TGI (NCI-H460 lung) [µM] | TGI (OVCAR-3 ovarian) [µM] | TGI (SK-MEL-2 melanoma) [µM] | TGI (SN12C renal) [µM] | TGI (SNB-75 CNS) [µM] | GI50 (HOP-92 NSCLC) [µM] | GI50 (HT29 colon) [µM] | GI50 (MDA-MB-231 breast) [µM] | GI50 (MDA-MB-435) [µM] | GI50 (NCI-H226 lung) [µM] | GI50 (NCI-H460 lung) [µM] | GI50 (OVCAR-3 ovarian) [µM] | GI50 (SK-MEL-2 melanoma) [µM] | GI50 (SN12C renal) [µM] | GI50 (SNB-75 CNS) [µM] |
| --- | --- | --- | --- | --- | --- | --- | --- | --- | --- | --- | --- | --- | --- | --- | --- | --- | --- | --- | --- | --- |
| O=NN(Cc1ccc(Cl)cc1)C(C(=O)O)c1ccccc1 (stereo not drawn) | > 100 | > 100 | > 100 | > 100 | > 100 | > 100 | > 100 | > 100 | > 100 | > 100 | – | – | – | – | – | – | – | – | – | – |
| CCOC(=O)CCc1cc(=O)oc2cc(O)cc(O)c12 | > 100 | > 100 | > 100 | > 100 | > 100 | > 100 | > 100 | > 100 | > 100 | > 100 | – | – | – | – | – | – | – | – | – | – |
| C[C@]12CC[C@H](O)CC1=CC[C@@H]1[C@@H]2CC[C@]2(C)C(c3cccnc3)=CC[C@@H]12 | > 55.9 | > 100 | > 100 | > 100 | > 100 | > 100 | > 100 | > 100 | > 100 | > 48.7 | 8.7 | 56.2 | > 27.1 | 12.2 | > 68 | > 100 | 82.1 | 34.5 | > 100 | 7.69 |
| NCC(=O)NS(=O)(=O)OC[C@H]1O[C@@H](n2cnc3c(N)ncnc32)[C@H](O)[C@@H]1O | 6.78 | 7.46 | 2.62 | 3.49 | 3.77 | 10.1 | 4.48 | 4.69 | 4.6 | 3.32 | 2.97 | 2.92 | 0.526 | 1.84 | 2 | 3.23 | 2.01 | 2.22 | 0.563 | 1.14 |
| CCCCC/C(C=C(C#N)C#N)=C/c1ccccc1 | 21.8 | 12.3 | 16.2 | 4.11 | 25.5 | 12.2 | 11.2 | 41.3 | 16.9 | 27.7 | 5.82 | 3.61 | 3.85 | 1.77 | 8.11 | 3.22 | 2.26 | 17.4 | 3.74 | 12.4 |
| N#Cc1ccc(C#Cc2ccccc2C#CCCCCO)cc1 | 34.6 | > 100 | 31.3 | 35.6 | 38.6 | 49 | 39.6 | 36.4 | 31.8 | > 100 | 17.7 | 46 | 16.7 | 18.9 | 20.9 | 19.7 | 19.9 | 17.1 | 17.7 | 42.2 |
| O=C1CNCCCN2CCN(CCCNCC(=O)Nc3ccc(cc3)S(=O)(=O)c3ccc(cc3)NC(=O)CNCCCN3CCN(CCCNCC(=O)Nc4ccc(cc4)S(=O)(=O)c4ccc(cc4)N1)CC3)CC2 | 60.6 | > 67.5 | 52.1 | > 58.8 | > 73.6 | 33.8 | > 89.4 | 90.1 | > 80.9 | > 100 | – | – | – | – | – | – | – | – | – | – |
| CN(C)CCC(=O)N1C/C(=C/c2ccccc2)C(=O)/C(=C\c2ccccc2)C1 | 16.6 | 2.69 | 2.6 | 3.85 | 12.6 | 6.47 | 7.05 | 8.74 | 3.84 | 15.1 | – | – | – | – | – | – | – | – | – | – |
| CC1CCC2(C(=O)O)CCC3(C)C(=CCC4C5(C)CC(O)C(O)C(C)(CO)C5C(O)CC43C)C2C1C (stereo not drawn) | 46.3 | > 100 | 72 | > 100 | > 100 | > 100 | 50.8 | 36.6 | 25.8 | 79.7 | – | – | – | – | – | – | – | – | – | – |
| CCCCC(=O)OCC1OC(n2cnc3c(=S)nc[nH]c32)C(OC(=O)CCCC)C1OC(=O)CCCC (stereo not drawn) | > 84.5 | > 100 | > 100 | > 100 | > 100 | > 100 | > 36.3 | > 78.7 | > 100 | – | 1 | 3.64 | 5.22 | 2.21 | – | 4.38 | 1.01 | 1.61 | 2.78 | 0.213 |
| O=C(CN1CCOCC1)Nc1ccc(Cn2nnc3c2C(=O)c2nnn(Cc4ccc(NC(=O)CN5CCOCC5)cc4)c2C3=O)cc1 | 2.34 | 1.53 | > 100 | 0.329 | 3.93 | 5.48 | 0.836 | 1.72 | 0.733 | 3.04 | 0.822 | 0.364 | 0.26 | 0.177 | 1.54 | 0.378 | 0.25 | 0.438 | 0.259 | 1.66 |

Source: PubChem BioAssay (NCI)
